Laboratory results published in patent US5521061A, “Enhancement of probe signal in nucleic acid-mediated in-situ hybridization studies” (Aprogenex, Inc., priority 1992, dated 1996).

How the values were obtained:
[1] = tested on: Human female white blood cells (karyotype XX); assay: Signal enhancers in the mounting solution after in situ hybridization (Example 6), HXR probes, fluorescent microscope; assay type: cell-based; details: not further described
[2] = tested on: Human female white blood cells (karyotype XX); assay: as above; assay type: cell-based; details: one volume compound plus 9 volumes mounting solution; rhodamine HXR probes; water control = 1
Description: After the in situ hybridization step, the cells were washed and then modified mounting solution was added and cells were observed under the microscope for fluorescence signal. Modified mounting solution was 9 volumes of mounting solution and one volume of additional compound, which was the compound being tested for its ability to be a signal enhancer. Mounting solution consisted of 0.1% 1,4 diphenylamine (antifade) in 50% glycerol (v/v), and nuclear stain Hoechst (#33258; 1 ug/ml).
Human female white blood cells (karyotype XX) were hybridized at 85° C. for 15 minutes with female chromosome HXR probes labelled with a rhodamine fluor. Cells were washed with wash buffers #1 and #2, and then suspended in a modified mounting solution. The additional compound in the modified mounting solution was varied; as a control, water was used as the additional compound. The signal intensity was observed under the fluorescent microscope.

[3] = tested on: Hela cells; assay: Liquid in situ hybridization with flow cytometry, DMSO plus additional compound (Example 4), 28S RNA and NR probes; assay type: cell-based
Description: A Coulter Profile II flow cytometer was used for flow cytometry. With FITC as the probe dye, the filter for LFL3 was a 635 nm long pass filter and the filter for LFL1 was a 540 bp filter; the excitation wavelength was 488 nm. PMT1 and PMT3 settings were adjusted as required. A typical useful setting when fluorescein is the dye moiety is to have a PMT1 setting of 1100, a PMT3 setting of 900, and color compensation (PMT1, PMT3) of 15 percent.
Liquid in Situ Cell Preparation and Hybridization Protocol
1. Cells were fixed in solution F, then resuspended in 2x SSC.
2. The cells were spun out of solution and resuspended in an assay solution (consisting of the hybridization cocktail HC alone or in combination with a compound or compounds being tested as an enhancer.)
3. After 30 min. at 42° C., the cells were washed in wash solution #1 preheated to 42° C. by centrifuging them out of the assay solution.
4. Cells were next washed in wash solution #2 preheated to 42° C.
5. Cells were resuspended in a 1X PBS solution containing 0.002% trypan blue as a counterstain.
6. Cells were run on a flow cytometer and a "Count vs. LFL1" histogram was generated. ("Count" refers to cell count.) This histogram was used as the basis for determining the mean LFL1.
The effect on probe signal intensity of adding, in addition to DMSO, additional compounds to the assay solution was determined in an in situ liquid hybridization assay. The data was analyzed by flow cytometry.
The Liquid In Situ Cell Preparation and Hybridization Protocol was followed. The cells used were Hela cells. The probes used were a 28S RNA probe (SEQ ID NO: 1) and an NR probe.
The 28S RNA probe (SEQ ID NO: 1) is a target-specific probe specific for ribosomal RNA fluorescence obtained with it represents the sum of fluorescence from target-bound probe, non-specifically bound probe and autofluorescence from cellular molecules. The NR probe (SEQ ID NO: 2) is specific for a plant nucleic acid sequence and, in the current Example, the fluorescence obtained with it represent the sum of fluorescence from non-specifically bound probe and autofluorescence.
In this experiment, the hybridization cocktail consisted of nine volumes of HC-DMSO plus one volume of additional compound. In the control sample, one volume of water replaced the one volume of additional compound. As a result, in all samples, the concentration of DMSO was 9 percent (v/v).
The ratio, 28S/NR, is the ratio of the mean LFL1 observed with the 28S RNA probe (SEQ ID NO: 1) to the mean LFL1 observed with the NR probe (SEQ ID NO: 2). The results in the "28S RNA probe" and "NR probe" columns give the mean LFL1 observed with the 28S RNA and NR probes, respectively (SEQ ID NO: 1 and SEQ ID NO: 2, respectively).

[4] = tested on: Hepg 2 cells; assay: Slide in situ hybridization, DMSO plus one additional compound (Example 2), HYR probe; assay type: cell-based, human
Description: (§1) Slide in situ Cell Preparation and Hybridization Protocol
(§2) 1) Cells were suspended in a fixative (3 vol ethanol plus 1 vol methanol) and transferred to glass slides by centrifugation using a Cytospin apparatus.
(§3) 2) The assay solution (consisting of the hybridization cocktail HC alone or mixed with a compound or compounds being tested as an enhancer) with the DNA probe (25 ul) was placed over the cells and covered with a coverslip.
(§4) 3) The slide was heated at 90° C. for 5 minutes for DNA denaturation, then incubated at 46° C. for 30 minutes for hybridization.
(§5) 4) Cells were washed once with the wash solution #1, which was equilibrated at 42° C. Then cells were washed ten times with wash solution #2, which was equilibrated at 42° C.
5) Mounting solution (50% glycerol (v/v) in 1×PBS plus the nuclear stain Hoechst, (#33258; 1 ug/ml) was placed on the cells and covered with a coverslip.
6) The hybridization signal was observed under an Olympus BH10 microscope with fluorescent capabilities using a rhodamine derivative filters (excitation wavelength of 567 nm, emission wavelength of 584 nm).
The inclusion of DMSO in an in situ assay solution increased the permeation of the nucleic acid probes into the cells and gave hybridization signal in over 95% of the cells. In this Example, we show the effect of adding, in addition to DMSO, 10 percent (v/v) of an additional compound to the assay solution. The additional compounds added were: squalane (an aliphatic alkane), dodecyl alcohol (an alcohol), beta-cyclodextrin (a sugar), isopropyl palmitate (a fatty acid ester), 1,2, propanediol (an alcohol), pyrrolidinone (a lactam) and hexamethyldisiloxane (an organic silane).
In this Example, the hybridization cocktail consisted of nine volumes of HC-DMSO plus one volume of an additional compound. In the control sample, one volume of water was added instead of one volume of additional compound. As a result, in all samples, the concentration of DMSO in the cocktail was 9 percent (v/v).
The Slide In Situ Cell Preparation and Hybridization protocol was followed. The cells used were Hepg 2 cells. The probe used was an HYR probe specific for human Y chromosome α-satellite DNA repeated sequences; at its 5' end, via an Aminolink linker molecule, the probe was linked to a Texas Red moiety. A signal intensity of 4 was assigned to the slide in which the assay solution was HC plus 10% DMSO (control slide) and all other slides were rated 1, 2, 3 or 4 in comparison to the control slide, depending on whether the intensity was 1, 2, 3, or 4 times that of the control slide, respectively.
The results are an average of four independent experiments.

[5] = tested on: WBC cells (white blood cells); assay: Slide in situ hybridization, effect of DMSO (Example 1), WBC cells, Y probe; assay type: cell-based, human; details: assay solution HC + 10% DMSO
Description: (§6) The Y probe (also referred to as the HYR probe) was a collection of oligonucleotides specific for human Y chromosome α-satellite DNA repeated sequences; where the probe was to be detected under a fluorescent microscope, it was labeled at its 5' end, via an Aminolink linker molecule (aminohexyl, from Applied Biosystems, Inc.), to a Texas Red Moiety.
WBC cells (white blood cells) were obtained from a healthy human.
as §1, §2, §3, §4, §5
(§7) 5) Mounting solution (50% glycerol (v/v) in 1×PBS plus the nuclear stain Hoechst, (#33258; 1 ug/ml) was placed on the cells and covered with a coverslip. […]

[6] = tested on: Hepg2 cells; assay: Slide in situ hybridization, effect of DMSO (Example 1), Hepg2 cells, Y probe; assay type: cell-based, human; details: assay solution HC + 10% DMSO
Description: Hepg2 cells were a human cell line (American Type Culture Collection number, ATCC-HB8065).
In this Example, the slide in situ cell preparation and hybridization protocol was followed.

[7] = tested on: Amniotic cells; assay: Slide in situ hybridization, effect of DMSO (Example 1), amniotic cells, Y probe; assay type: cell-based, human; details: assay solution HC + 10% DMSO
Description: as §6
Amniotic cells were obtained by standard amniocentesis procedure.
as §1, §2, §3, §4, §5, §7

Row | Compound | Effect on signal in an earlier experiment [1] | Signal Intensity Scale of 1 to 4 [2] | 28S RNA Probe, mean LFL1 ([3]; 10% additional compound with 9% DMSO, FITC 28S RNA probe, water control 6.070, average of four experiments) | NR Probe, mean LFL1 ([3]; 10% additional compound with 9% DMSO, FITC NR probe (non-specific binding and autofluorescence), water control 0.137) | Ratio 28S RNA/NR (ratio of mean LFL1) ([3]; 10% additional compound with 9% DMSO, water control 44) | Fluorescent signal (Scale of 1 to 4) ([4]; 10% (v/v) additional compound with 9% DMSO, slide rating x 0.5, water control = 2, average of four experiments) | Fluorescent Signal intensity (Scale of 1 to 4) [5] | Fluorescent Signal intensity (Scale of 1 to 4) [6] | Optimal DMSO concentration for signal brightness ([3]; DMSO alone, nine percent) | Cells giving hybridization signal ([4]; DMSO included in in situ assay solution, cells not specified (opening statement of Example 2)) | Fluorescent Signal intensity (Scale of 1 to 4) [7]
1 | CCCCCCCCCCCCO [dodecyl alcohol] | decrease in signal | 4 | 4.804 | 0.142 | 34 | 2 |  |  |  |  | 
2 | C[S+](C)[O-] [DMSO, dimethyl sulfoxide] |  |  |  |  |  |  | 4 | 4 | at or close to the optimal DMSO concentration for signal brightness | over 95% | 4
